Patent publication US20250368638A1, “BICYCLIC INHIBITORS OF NICOTINAMIDE […], COMPOSITIONS AND USES THEREOF” (President and Fellows of Harvard College, priority 2021, published 2025)

Legend:
hERG = hERG (Homo sapiens, UniProt Q12809); assay: hERG safety evaluation by manual Patch-Clamp system; assay type: cell-based
Description: Cell lines and cell culture: hERG stably expressed HEK 293 cell line (Cat #K1236) was purchased from Invitrogen. The cells are cultured in 85% DMEM, 10% dialyzed FBS, 0.1 mM NEAA, 25 mM HEPES, 100 U/mL Penicillin-Streptomycin, 5 μg/mL Blasticidin and 400 μg/mL Geneticin. Cells are split using TrypLE™ Express about three times a week, and maintained between ˜40% to ˜80% confluence. Before the assay, the cells were onto the coverslips at 5×10^5 cells/per 6 cm cell culture dish and induced with doxycycline at 1 μg/mL for 48 hours.
[…]; 2) Intracellular solution (in mM): 140 KCl, 2 MgCl2, 10 EGTA, 10 HEPES and 5 MgATP (pH adjusted to 7.35 with KOH).
Experimental procedure: 1) Remove the coverslip from the cell culture dish and place it on the microscope stage in bath chamber; 2) Locate a desirable cell using the ×10 objective. Locate the tip of the electrode under the microscope using the ×10 objective by focusing above the plane of the cells. […]
Data analysis: Data that met the above criteria for hERG current quality were further analyzed as the following steps: 1) Percent hERG current inhibition was calculated using the following equation; 2) The dose response curve of test compounds was plotted with percentage of hERG current inhibition against the concentration of test compounds using Graphpad Prism 8.0, and fit to a sigmoid dose-response curve with a variable slope.

[1] = test system: CYP1A2, CYP2A6, CYP2B6, CYP2C8, CYP2C9, CYP2C19, CYP2D6, CYP2E and CYP3A4; assay: CYP inhibition studies in human liver microsomes; assay type: in vitro ADME; conditions: up to 100 μM
Description: 1. 1 μL of multiple concentrations of test compound or positive control compound (CYP1A2: furafylline, CYP2A6: tranylcypromine, CYP2B6: ketoconazole, CYP2C8: quercetin, CYP2C9: sulfaphenazole, CYP2C19: N-3-benzylnirvanol, CYP2D6: quinidine, CYP2E1: disulfiram and CYP3A4: ketoconazole) was transferred to the “Compound Plate”. The concentrations of test compounds were 0, 0.6, 2, 6, 20, 60, 2000, 6000 and 20000 μM. The concentrations of positive control compounds were 0, 0.2, 1, 2, 10, 50, 200, 2000 and 10000 μM.
2. The master solution was prepared according to the Table 9A and 9B, and pre-warmed in the water bath at 37° C. for 5 minutes. 179 μL of master solutions were transferred to “Incubation Plate”. In the mixed system, the final concentrations of test compound were 0, 0.003, 0.01, 0.03, 0.1, 0.3, 10, 30 & 100 μM, and the final concentrations of positive control compound were 0, 0.001, 0.005, 0.01, 0.05, 0.25, 1, 10 & 50 μM. All experiments were performed in duplicate.
3. The reaction was started with the addition of 20 μL of 10 mM NADPH solution at the final concentration of 1 mM and carried out at 37° C.
4. […]
5. […] The formation of metabolites was analyzed by using LC-MS/MS. […]
6. […] The formation of metabolites were analyzed by using LC-MS/MS. […] The IC50 shift was calculated for evaluating the mechanism of the inhibition.

[2] = test system: Ion Channels, GPCR, Transporter, Kinases, Enzyme and Nuclear Hormone Receptor; assay: Off-target safety panel screening; conditions: at 10 μM
Description: An off-target safety panel screening for 11 was conducted. The class of target teste included Ion Channels, GPCR, Transporter, Kinases, Enzyme and Nuclear Hormone Receptor.

hERG, sequence (Q12809 whole entry): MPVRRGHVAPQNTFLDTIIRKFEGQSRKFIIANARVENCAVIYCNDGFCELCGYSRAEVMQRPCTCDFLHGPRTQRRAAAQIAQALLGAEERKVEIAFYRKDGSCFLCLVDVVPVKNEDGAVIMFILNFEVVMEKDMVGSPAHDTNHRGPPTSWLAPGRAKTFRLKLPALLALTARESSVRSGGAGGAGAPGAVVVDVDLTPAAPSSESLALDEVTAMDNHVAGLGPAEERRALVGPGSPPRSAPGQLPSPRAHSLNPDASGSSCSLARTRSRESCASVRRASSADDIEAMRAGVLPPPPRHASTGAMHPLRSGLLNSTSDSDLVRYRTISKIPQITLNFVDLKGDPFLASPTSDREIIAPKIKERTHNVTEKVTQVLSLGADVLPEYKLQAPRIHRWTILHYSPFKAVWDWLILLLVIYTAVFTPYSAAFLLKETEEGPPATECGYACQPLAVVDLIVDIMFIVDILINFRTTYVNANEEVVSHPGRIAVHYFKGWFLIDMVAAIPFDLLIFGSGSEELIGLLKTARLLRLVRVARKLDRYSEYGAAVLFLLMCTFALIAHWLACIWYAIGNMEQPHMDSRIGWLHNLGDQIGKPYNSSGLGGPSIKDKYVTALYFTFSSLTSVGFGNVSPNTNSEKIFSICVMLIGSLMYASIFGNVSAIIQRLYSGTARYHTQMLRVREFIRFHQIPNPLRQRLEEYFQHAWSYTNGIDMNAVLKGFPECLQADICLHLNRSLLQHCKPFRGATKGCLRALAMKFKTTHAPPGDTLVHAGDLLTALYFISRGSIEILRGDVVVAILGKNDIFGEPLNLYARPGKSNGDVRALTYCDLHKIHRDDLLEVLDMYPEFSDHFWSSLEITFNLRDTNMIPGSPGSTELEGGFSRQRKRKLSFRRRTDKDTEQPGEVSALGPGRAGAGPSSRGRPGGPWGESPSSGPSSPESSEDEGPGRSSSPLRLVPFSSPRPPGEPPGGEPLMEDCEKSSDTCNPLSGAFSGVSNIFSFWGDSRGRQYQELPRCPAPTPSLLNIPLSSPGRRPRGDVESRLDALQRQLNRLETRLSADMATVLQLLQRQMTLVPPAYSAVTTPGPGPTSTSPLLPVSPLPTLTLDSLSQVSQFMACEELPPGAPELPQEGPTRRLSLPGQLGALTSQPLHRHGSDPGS

In the case of C[C@@H]1Cc2cc(C(N)=O)cnc2N1 [Compound 11, (2R)-2-methyl-2,3-dihydro-1H-pyrrolo[2,3-b]pyridine-5-carboxamide], the inhibition at 5 min, 30 µM (hERG; human, HEK293 cells stably expressing hERG, pH 7.35, at 30 μM) is reported as 15%, the IC50 (hERG; manual Patch-Clamp, hERG stably expressed HEK 293 cell line) is reported as > 30 µM and the “Inhibition of CYP isoforms” value [1] is reported as “did not inhibit”. For the same compound, the Off-target activity [2] was “did not show significant off-target activity”.
